Values joined by “and” are separate entries in the source; they are usually repeats but may differ in a detail not shown here. Identical values can stand only once. “Also recorded” adds a separate entry of the source. Like-named read-outs stand apart in the source and are kept apart here.
Assays:
human CB1R (hCB1R) = molecular target: T1, human CB1R (hCB1R) (Homo sapiens, UniProt P21554); experiment: [3H]CP-55,940 competition displacement binding assay, hCB1R membranes
T1 construct: purchased Charles River A317
T1 sequence (P21554 whole entry): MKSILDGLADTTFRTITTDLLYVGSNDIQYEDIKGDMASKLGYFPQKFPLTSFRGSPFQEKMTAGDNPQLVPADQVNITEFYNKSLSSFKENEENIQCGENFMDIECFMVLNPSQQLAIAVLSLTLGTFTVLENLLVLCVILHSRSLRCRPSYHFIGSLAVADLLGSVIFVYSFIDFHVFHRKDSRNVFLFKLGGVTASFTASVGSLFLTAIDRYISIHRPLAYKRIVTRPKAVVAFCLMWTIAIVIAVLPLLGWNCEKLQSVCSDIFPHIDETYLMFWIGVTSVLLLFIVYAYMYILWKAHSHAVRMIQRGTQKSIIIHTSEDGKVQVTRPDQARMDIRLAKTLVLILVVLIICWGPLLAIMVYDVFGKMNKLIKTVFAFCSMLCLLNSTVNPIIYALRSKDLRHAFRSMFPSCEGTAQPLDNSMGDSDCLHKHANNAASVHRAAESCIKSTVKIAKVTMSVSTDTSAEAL
Protocol: (§1) The compounds were further characterized using a radioligand binding assay to determine their affinities for CB1R and CB2R based on each test compound’s ability to displace the radiolabeled CB1R/CB2R agonist CP-55,940 from membranes of cells expressing the human CB1R and CB2R [24].
(§2) Membranes from cells expressing hCB1R and hCB2R were purchased from Charles River, (Cat#A317 and A318, respectively; OH, USA). Solutions of test compounds ranging from 0.1 nM to 10 mM were prepared in DMSO. The desired amount of membrane preparation was diluted with ice-cold assay buffer (50 mM Tris-HCl, 2.5 mM EDTA, 5 mM MgCl2, 0.1% BSA, pH 7.4) and was vortexed. […] The assays were incubated for 90 min at 30 °C and then immediately filtered on WHATMAN GF/B Filter Paper (Fired) using a Brandel M-24R Harvester followed by six washes with ice cold wash buffer (50 mM Tris-HCl, 2.5 mM EDTA, 5 mM MgCl2, 0.1% BSA, pH 7.4). Radioactivity was detected by adding the Filter Paper directly to the ULTIMA GOLD scintillation cocktail (PerkinElmer, Waltham, MA, USA), incubation at 20 °C for 60 min and then counted using a Tri-Carb 4910TR liquid scintillation counter (PerkinElmer, Waltham, MA, USA).

human CB2R (hCB2R) = human CB2R (hCB2R) (Homo sapiens, UniProt P34972); experiment: [3H]CP-55,940 competition displacement binding assay, hCB2R membranes
Chain of human CB2R (hCB2R) (P34972 whole entry): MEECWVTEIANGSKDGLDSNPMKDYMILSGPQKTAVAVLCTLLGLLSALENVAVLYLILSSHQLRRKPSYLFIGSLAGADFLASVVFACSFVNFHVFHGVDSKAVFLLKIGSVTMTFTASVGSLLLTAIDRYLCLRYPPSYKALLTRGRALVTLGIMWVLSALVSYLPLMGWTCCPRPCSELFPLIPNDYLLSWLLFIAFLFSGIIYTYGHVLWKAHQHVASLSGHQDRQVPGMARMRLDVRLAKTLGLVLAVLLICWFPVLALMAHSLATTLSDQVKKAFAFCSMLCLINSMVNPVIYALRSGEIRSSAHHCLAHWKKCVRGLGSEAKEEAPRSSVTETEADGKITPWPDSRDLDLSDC
Protocol: as §1, §2
Each curve represents the mean of three experiments performed in triplicate.

hCB2R = molecular target: T2, hCB2R (Homo sapiens, UniProt P34972); experiment: [35S]GTPγS binding assay at hCB2R; assay type: biochemical; details: for functional activity at hCB2R (agonist / antagonist / inverse agonist): [35S]GTPγS binding; for EC50: increase in [35S]GTPγS binding to hCB2R, two independent experiments in triplicate
T2 construct: purchased Charles River A318; host or cells: CHO-K1 cells
T2 sequence (P34972 whole entry): as above
Protocol: The method used for measuring agonist-stimulated binding of [^35S]GTPγS was based on a described protocol. Membranes (5 μg protein) were incubated in GTPγS assay buffer (50 mM Tris HCl (pH 7.4), 0.2 mM EGTA, 9 mM MgCl2, 150 mM NaCl, 1 mg/mL BSA) containing 100 μM GDP, 0.05 nM [^35S]GTPγS and test compounds at various concentrations. Vacuum filtration was used to separate bound ligand from free ligand. We used 10 μM GTPS to determine nonspecific binding. Basal binding was assayed in the absence of the ligand and in the presence of GDP.
Each symbol represents the mean percentage increase in [^35S]GTPγS binding ± SE.

[1] = test system: zymosan-induced paw inflammation; experiment: Zymosan-induced hind paw swelling (oedema) in mice; assay type: in vivo; details: 6 h after 60 μg zymosan paw injection
TNF-α = experiment: Serum TNF-α (ELISA) after zymosan injection in mice; assay type: in vivo; details: 24 h after zymosan
Protocol: Control mice were injected with vehicle.
A mouse TNFα ELISA kit was used according to the manufacturer’s instructions (R&D Systems, Minneapolis, MN, USA).

[2] = test system: zymosan-induced hyperalgesia; experiment: von Frey monofilament pain assay in zymosan-injected mice; assay type: in vivo; details: 15 and 25 mg/kg ip, after 6 h, p < 0.01
Protocol: We injected 40 μL of 1.5% (w/v) zymosan A in 0.9% saline into the right hind paw of the mice to induce inflammation. […] Control mice were injected with vehicle. Paw swelling and pain perception were measured after 2, 6 and 24 h.

[3] = displacement of [3H]CP-55,940, membranes of CHO-K1 cells expressing human CB2R, read-out: Ki (nM) hCB2R
[4] = maximal effect as percentage of HU-308 response at 1 µM

Compound	Ki (human CB1R (hCB1R); read-out: Ki (nM) hCB1R) [nM]	Ki (human CB2R (hCB2R); [3])	functional activity at hCB2R (agonist / antagonist / inverse agonist) (hCB2R)	EC50 (hCB2R) [µM]	other results
2-(2′-Methoxy-5′-octylphenyl)-1,3,3-trimethylbicyclo[2.2.1]heptan-2-ol [Compound 3g]	–	–	–	–	Ki (human CB1R (hCB1R); displacement of [3H]CP-55,940, class word NB, read-out: Ki (nM) hCB1R): > 10000 nM
CCCCCc1cc(OC)c(C2(O)C3(C)CCC(C3)C2(C)C)c(OC)c1 (stereo not shown) [Compound 1a, 2-(2′,6′-Dimethoxy-4′-pentylphenyl)-1,3,3-trimethylbicyclo[2.2.1]heptan-2-ol]	> 10000	47.7 nM	–	–	inhibition of [3H]CP-55,940 binding to hCB1R (human CB1R (hCB1R); result in words): no measurable inhibition
CCCCCc1cc(OC)c(C2(O)C3(C)CCC(C3)C2(C)C)c(OC)c1 (stereo not shown) [Compound 1b, 2-(2′,6′-Dimethoxy-4′-pentylphenyl)-1,3,3-trimethylbicyclo[2.2.1]heptan-2-ol]	–	14.4 nM	agonist	0.0116	E(max)% (hCB2R): 65.1%; reduction in swelling ([1]; 25 mg/kg ip): 54%; inhibition of TNF-α serum levels (TNF-α; 25 mg/kg ip): 39%
CCCCCCC(C)(C)c1cc(OC)c(C2(O)C3(C)CCC(C3)C2(C)C)c(OC)c1 (stereo not shown) [Compound 1c, 2-(2′,6′-Dimethoxy-4′-(2″-methyloctan-2″-yl)phenyl)-1,3,3-trimethylbicyclo[2.2.1]heptan-2-ol]	> 10000	56.8 nM	agonist	0.121	–
CCCCCCC(C)(C)c1cc(OC)c(C2(O)C3(C)CCC(C3)C2(C)C)c(OC)c1 (stereo not shown) [Compound 1d, 2-(2′,6′-Dimethoxy-4′-(2″-methyloctan-2″-yl)phenyl)-1,3,3-trimethylbicyclo[2.2.1]heptan-2-ol]	–	–	–	0.00259	E(max)% (hCB2R; [4]): 89.6%; reduction in swelling ([1]; 15 mg/kg ip): 30%; reduction in swelling ([1]; 25 mg/kg ip): 54%; Ki (human CB2R (hCB2R); Ki (nM) hCB2R): 3.51 nM; inhibition of TNF-α serum levels (TNF-α; 15 mg/kg ip): 26%; inhibition of TNF-α serum levels (TNF-α; 25 mg/kg ip): 40%; anti-nociceptive effect (paw withdrawal threshold, von Frey) [2]: strong anti-nociceptive effects
COc1cc(C)cc(OC)c1C1(O)C2(C)CCC(C2)C1(C)C (stereo not shown) [Compound 1e, 2-(2′,6′-Dimethoxy-4′-methylphenyl)-1,3,3-trimethylbicyclo[2.2.1]heptan-2-ol]	> 10000	–	–	–	Ki (human CB2R (hCB2R); displacement of [3H]CP-55,940, value given in µM, read-out: Ki (nM) hCB2R): > 10000 nM
COc1cc(C)cc(OC)c1C1(O)C2(C)CCC(C2)C1(C)C (stereo not shown) [Compound 1f, 2-(2′,6′-Dimethoxy-4′-methylphenyl)-1,3,3-trimethylbicyclo[2.2.1]heptan-2-ol]	–	233 nM	–	–	–
CCCCCCc1ccc(OC)c(C2(O)C3(C)CCC(C3)C2(C)C)c1OC (stereo not shown) [Compound 2a, 2-(3′-Hexyl-2′,6′-dimethoxyphenyl)-1,3,3-trimethylbicyclo[2.2.1]heptan-2-ol]	> 10000	224 nM and 223 nM	–	–	–
CCCCCCc1ccc(OC)c(C2(O)C3(C)CCC(C3)C2(C)C)c1OC (stereo not shown) [Compound 2b, 2-(3′-Hexyl-2′,6′-dimethoxyphenyl)-1,3,3-trimethylbicyclo[2.2.1]heptan-2-ol]	–	73.4 nM	weakly stimulated; also recorded: agonist	1.94	E(max)% (hCB2R): 46.2%
CCCc1ccc(OC)c(C2(O)C3(C)CCC(C3)C2(C)C)c1 (stereo not shown) [Compound 3a, 2-(2′-Methoxy-5′-propylphenyl)-1,3,3-trimethylbicyclo[2.2.1]heptan-2-ol]	> 10000	1010 nM	–	–	–
CCCc1ccc(OC)c(C2(O)C3(C)CCC(C3)C2(C)C)c1 (stereo not shown) [Compound 3b, 2-(2′-Methoxy-5′-propylphenyl)-1,3,3-trimethylbicyclo[2.2.1]heptan-2-ol]	–	610 nM	–	–	–
CCCCCc1ccc(OC)c(C2(O)C3(C)CCC(C3)C2(C)C)c1 (stereo not shown) [Compound 3c, 2-(2′-Methoxy-5′-pentylphenyl)-1,3,3-trimethylbicyclo[2.2.1]heptan-2-ol]	> 10000	444 nM	–	–	–
CCCCCc1ccc(OC)c(C2(O)C3(C)CCC(C3)C2(C)C)c1 (stereo not shown) [Compound 3d, 2-(2′-Methoxy-5′-pentylphenyl)-1,3,3-trimethylbicyclo[2.2.1]heptan-2-ol]	–	834 nM	–	–	–
CCC(C)(C)c1ccc(OC)c(C2(O)C3(C)CCC(C3)C2(C)C)c1 (stereo not shown) [Compound 3e, 2-(2′-Methoxy-5′-(tert-pentyl)phenyl)-1,3,3-trimethylbicyclo[2.2.1] heptan-2-ol]	> 10000	2870 nM	–	–	–
CCC(C)(C)c1ccc(OC)c(C2(O)C3(C)CCC(C3)C2(C)C)c1 (stereo not shown) [Compound 3f, 2-(2′-Methoxy-5′-(tert-pentyl)phenyl)-1,3,3-trimethylbicyclo[2.2.1] heptan-2-ol]	–	1450 nM	–	–	–
CCCCCCCCc1ccc(OC)c(C2(O)C3(C)CCC(C3)C2(C)C)c1 (stereo not shown) [Compound 3h, 2-(2′-Methoxy-5′-octylphenyl)-1,3,3-trimethylbicyclo[2.2.1]heptan-2-ol]	> 10000	–	–	–	–
CCCCCc1cc(OC)c(C2(O)C3(C)CCC(C3)C2(C)C)c(OC)c1F (stereo not shown) [Compound 4a, 2-(3′-Fluoro-2′,6′-dimethoxy-4′-pentylphenyl)-1,3,3-trimethylbicyclo[2.2.1]heptan-2-ol]	> 10000	155 nM	–	–	–
CCCCCc1cc(OC)c(C2(O)C3(C)CCC(C3)C2(C)C)c(OC)c1F (stereo not shown) [Compound 4b, 2-(3′-Fluoro-2′,6′-dimethoxy-4′-pentylphenyl)-1,3,3-trimethylbicyclo[2.2.1]heptan-2-ol]	–	28.3 nM	agonist	0.305	E(max)% (hCB2R; [4]): 54.2%
CCCCCCC(C)(C)c1cc(OC)c(C2(O)C3(C)CCC(C3)C2(C)C)c(OC)c1F (stereo not shown) [Compound 4c, 2-(3′-fluoro-2′,6′-dimethoxy-4′-(2″-methyloctan-2″-yl)phenyl)-1,3,3-trimethylbicyclo[2.2.1]heptan-2-ol]	> 10000	438 nM	–	–	–
CCCCCCC(C)(C)c1cc(OC)c(C2(O)C3(C)CCC(C3)C2(C)C)c(OC)c1F (stereo not shown) [Compound 4d, 2-(3′-fluoro-2′,6′-dimethoxy-4′-(2″-methyloctan-2″-yl)phenyl)-1,3,3-trimethylbicyclo[2.2.1]heptan-2-ol]	–	56.6 nM	agonist	0.104	E(max)% (hCB2R; [4]): 119%
CCCCCc1cc(O)c(C2(O)C3(C)CCC(C3)C2(C)C)c(OC)c1 (stereo not shown) [Compound 5a, 2-(2′-hydroxy-6′-methoxy-4′-pentylphenyl)-1,3,3-trimethylbicyclo[2.2.1]heptan-2-ol]	> 10000	4980 nM	–	–	–
CCCCCc1cc(O)c(C2(O)C3(C)CCC(C3)C2(C)C)c(OC)c1 (stereo not shown) [Compound 5b, 2-(2′-hydroxy-6′-methoxy-4′-pentylphenyl)-1,3,3-trimethylbicyclo[2.2.1]heptan-2-ol]	–	36.5 nM	agonist	0.0828	E(max)% (hCB2R): 69.5%
CCCCCCC(C)(C)c1cc(O)c(C2(O)C3(C)CCC(C3)C2(C)C)c(OC)c1 (stereo not shown) [Compound 5c, 2-(2′-Hydroxy-6′-methoxy-4′-(2″-methyloctan-2″-yl)phenyl)-1,3,3-trimethylbicyclo-[2.2.1]heptan-2-ol]	> 10000	107 nM	–	–	–
CCCCCCC(C)(C)c1cc(O)c(C2(O)C3(C)CCC(C3)C2(C)C)c(OC)c1 (stereo not shown) [Compound 5d, 2-(2′-Hydroxy-6′-methoxy-4′-(2″-methyloctan-2″-yl)phenyl)-1,3,3-trimethylbicyclo-[2.2.1]heptan-2-ol]	–	–	agonist	0.0148	E(max)% (hCB2R; [4]): 105%; Ki (human CB2R (hCB2R); Ki (nM) hCB2R): 24.6 nM and 24.5 nM
CCCCCCC(C)(C)c1cc(OC)c([C@@H]2C=C(CO)[C@@H]3C[C@H]2C3(C)C)c(OC)c1 [HU-308, reference compound]	–	–	agonist	–	E(max)% (hCB2R; [4]): 100%; reduction in swelling ([1]; 25 mg/kg ip): 20%; Ki (human CB1R (hCB1R)): > 10000 nM; inhibition of TNF-α serum levels (TNF-α; 25 mg/kg ip): 28%
